Results as given in US9249115B2, “N,N1 substituted piperazines having combined antiaggregant, anticoagulant and vasodilatory activity, and method for producing same” (Vertex Closed Joint Stock Company, priority 2011, dated 2016).

Tests used:
[1] = tested on: mesentery arterioles; assay: Vasodilator properties, microcirculatory vessel responsiveness to noradrenalin, arterioles; assay type: in vivo, Wistar male rats
Procedure: (§1) Vasodilator properties of N,N′-substituted piperazines were evaluated according to their influence on microcirculatory vessel responsiveness.
(§2) The studies were done on Wistar male rats with mass of 300±30 g (laboratory animals nursery “Rappolovo”, RAMS). The animals were kept with unlimited food (standard ration for laboratory rats K-120 by <<Inform-korm>>, Russia) and water allowance.
(§3) The solutions of N,N′-substituted piperazines and physiological (control) solution were introduced via bolus injection within 1 min into caudal vein of non-anaesthetized animals according to the dosage of 5.0 ml per 1 kg. Immediately after the introduction the animals were put in separate standard cages for observation.
(§4) In 30 min after the injection the animals were anaesthetized (thiopental sodium, 60 mg/kg intraperitoneally). The loop of small intestine adjoined to mesoappendix was retrieved through inferomedian incision. To study microcirculation in mesentery venules and arterioles in transmitted light the rat was placed on thermostated microscope objective table. The application of noradrenalin solution (Aguettant, 2 mg/ml, Laboratoire AGUETTANT, France) was done directly on the mesentery (Furness J. B., Marshall J. M., 1974; Yantareva L. I., 2004).
(§5) The study of microcirculatory vessels was done with LUMAM I1 microscope (LOMO, Russia). The recording of video data was done with the camera (Optics and Electronics ISTA Ltd) attached to a personal computer. The processing of data was done with Video-Test 4.0 software (ISTA Ltd., Russia). The diameter of the vessel wall (D, m) before and after the application of noradrenalin and the starting time of blood flow slowdown induced by noradrenalin were measured (the measurements were done for 1 min after the application).

[2] = tested on: mesentery venules; assay: Vasodilator properties, microcirculatory vessel responsiveness to noradrenalin, venules; assay type: in vivo, Wistar male rats
Procedure: as §1, §2, §3, §4, §5

[3] = tested on: experimental photothrombosis; assay: Experimental photothrombosis model, arterial blood velocity; assay type: in vivo, Wistar male rats
Procedure: The studies were done on Wistar male rats with mass of 230±30 g (laboratory animals nursery “Rappolovo”, RAMS). The animals were kept with unlimited food (standard ration for laboratory rats K-120 by <<Inform-korm>>, Russia) and water allowance. […]
Thrombosis modeling: the drugs were introduced into left femoral vein, in 50 min afterwards 1 ml of Bengal rose A photosensitizer (Acros Organics, USA) solution was introduced with dose of 17 mg/kg [Boselli 2007, Petrischev 2009]. Then the incision of internal surface of animal right thigh about 2 cm in length was made. The section of the femoral vein about 5 mm in length was released from surrounding tissues and separated from neurovascular bundle. Beneath this section of the vein the black non-transparent plastic strip 3 mm in width was laid to screen off the vein and surrounding tissues from radiation. The irradiation was done using diode laser <<DPSS-laser>> (Diode Pumped Solid State Laser, South Korea) with 532 nm wavelength and 60 mW power. The area of irradiation was 1 mm^2, exposing time was 40 min. The blood flow in femoral artery was measured by high frequency Doppler ultrasonography method (<<Minimax-Doppler-K>> apparatus, frequency of sensor was 20 MHz). The blood velocity alteration due to irradiation was measured (Table 9).

[4] = in vivo; cited from earlier work
[5] = 0.01 mmol/kg, noradrenalin 10^−6 g/ml
[6] = 0.025 mmol/kg, noradrenalin 10^−7 g/ml

| Compound | % of vessel constriction [1, 5] [%] | Blood flow slowdown, Latent period of slowdown [1, 5] [s] | % of vessel constriction [1, 6] [%] | % of vessel constriction [2, 5] [%] | Blood flow slowdown, Latent period of slowdown [2, 5] [s] | % of vessel constriction [2, 6] [%] | V, cm/s (arterial blood velocity) ([3]; 0.01 mmol/kg, 0 min of irradiation) [cm/s] | V, cm/s (arterial blood velocity) ([3]; 0.01 mmol/kg, 10 min of irradiation) [cm/s] | V, cm/s (arterial blood velocity) ([3]; 0.01 mmol/kg, 20 min of irradiation) [cm/s] | V, cm/s (arterial blood velocity) ([3]; 0.01 mmol/kg, 30 min of irradiation) [cm/s] | V, cm/s (arterial blood velocity) ([3]; 0.01 mmol/kg, 40 min of irradiation) [cm/s] | V, cm/s (arterial blood velocity) ([3]; 0.025 mmol/kg, 0 min of irradiation) [cm/s] | V, cm/s (arterial blood velocity) ([3]; 0.025 mmol/kg, 10 min of irradiation) [cm/s] | V, cm/s (arterial blood velocity) ([3]; 0.025 mmol/kg, 20 min of irradiation) [cm/s] | V, cm/s (arterial blood velocity) ([3]; 0.025 mmol/kg, 30 min of irradiation) [cm/s] | V, cm/s (arterial blood velocity) ([3]; 0.025 mmol/kg, 40 min of irradiation) [cm/s] | dermal reactions that lead to treatment cessation [4] | gastrointestinal reactions that lead to treatment cessation [4] |
| --- | --- | --- | --- | --- | --- | --- | --- | --- | --- | --- | --- | --- | --- | --- | --- | --- | --- | --- |
| COc1ccc(CN2CCN(CC(CS(=O)(=O)[O-])OS(=O)(=O)[O-])CC2)c(OC)c1OC.[Na+].[Na+] (stereo not drawn) [Example 14, 2-sulfooxy-3-(4-((2,3,4-trimethoxyphenyl)-methyl)piperazine-1-yl)propane-1-sulfonic acid disodium salt monohydrate] | 58 | 43 ± 4 | 28 | 33 | 41 ± 6 | 22 | 6.9 ± 3.2 | 7.00 ± 2.0 | 6.8 ± 2.0 | 6.9 ± 1.3 | 6.6 ± 1.4 | 8.3 ± 1.8 | 8.1 ± 1.3 | 8.3 ± 2.0 | 8.0 ± 1.3 | 8.2 ± 1.2 | – | – |
| Clc1ccccc1CN1CCc2sccc2C1 [ticlopidine] | – | – | – | – | – | – | – | – | – | – | – | – | – | – | – | – | 4-15% | up to 20% |
